Test results: patent publication US20220280647A1, “Hydrophobic Peptide Salts for Extended Release Compositions” (BIOMARIN PHARMACEUTICAL INC., priority 2019, published 2022)
Where no end group is shown, it is not given here.

Assays:
[1] = target: T1, NPR—B (Homo sapiens, UniProt P20594); settings: cited from earlier work
T1 sequence (P20594 23-1047): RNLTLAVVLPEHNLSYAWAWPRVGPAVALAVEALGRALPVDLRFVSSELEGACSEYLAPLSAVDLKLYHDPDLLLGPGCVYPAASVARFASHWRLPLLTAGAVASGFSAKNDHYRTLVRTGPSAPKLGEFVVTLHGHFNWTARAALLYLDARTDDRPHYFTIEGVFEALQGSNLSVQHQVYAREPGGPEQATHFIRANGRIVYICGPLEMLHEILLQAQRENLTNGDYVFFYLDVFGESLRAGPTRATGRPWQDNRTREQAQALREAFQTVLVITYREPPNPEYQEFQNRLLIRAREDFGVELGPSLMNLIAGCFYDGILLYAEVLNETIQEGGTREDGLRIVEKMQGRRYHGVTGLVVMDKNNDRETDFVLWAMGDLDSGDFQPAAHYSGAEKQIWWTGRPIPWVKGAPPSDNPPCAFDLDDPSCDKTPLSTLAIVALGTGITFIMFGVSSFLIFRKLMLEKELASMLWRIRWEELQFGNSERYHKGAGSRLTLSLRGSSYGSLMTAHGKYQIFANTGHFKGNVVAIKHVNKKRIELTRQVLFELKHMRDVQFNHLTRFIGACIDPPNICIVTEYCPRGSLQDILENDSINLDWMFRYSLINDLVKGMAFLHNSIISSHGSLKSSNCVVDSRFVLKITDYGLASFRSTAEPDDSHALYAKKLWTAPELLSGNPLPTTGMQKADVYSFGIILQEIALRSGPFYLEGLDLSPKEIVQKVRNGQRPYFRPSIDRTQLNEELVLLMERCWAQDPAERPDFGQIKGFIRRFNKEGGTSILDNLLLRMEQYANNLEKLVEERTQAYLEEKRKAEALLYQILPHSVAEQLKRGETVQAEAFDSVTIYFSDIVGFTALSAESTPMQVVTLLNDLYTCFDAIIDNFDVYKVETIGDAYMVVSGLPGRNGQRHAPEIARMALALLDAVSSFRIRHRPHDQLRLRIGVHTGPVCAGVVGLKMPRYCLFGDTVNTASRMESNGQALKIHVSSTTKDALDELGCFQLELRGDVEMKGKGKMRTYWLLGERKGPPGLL

[2] = test system: PRKG2; settings: previous activation data (Campbell 2017; Vaandrager 1997; Pohler 1995); cited from earlier work
[3] = pH 9
Protocol: To make hydrophobic CNP salts, including CNP variants, CNP-acetate is placed into water or a buffer. In a first experiment, a stock solution comprising CNP at 20 mg/mL in water was prepared. […] Disodium pamoic acid, oleic acid, or sodium docusate were placed in a buffer at a concentration that is in a molar excess to the number of oppositely charged groups on CNP, in this instance a 12 molar excess of counterion to CNP. CNP has 6 positively charged groups at pH 7, and this is a two-fold excess over the number of positively charged groups.

[4] = cited from earlier work
[5] = target: T2, NPR2 (Rattus norvegicus, UniProt P16067); assay: cGMP stimulation assay (CatchPoint Cyclic-GMP Fluorescent Assay) in NPR2 mutant RCS cells; format: cell-based
T2 construct: endogenous in cells; host or cells: RCS (rat chondrosarcoma) cells, wild-type and NPR2+/- clones
T2 sequence (P16067 17-1047): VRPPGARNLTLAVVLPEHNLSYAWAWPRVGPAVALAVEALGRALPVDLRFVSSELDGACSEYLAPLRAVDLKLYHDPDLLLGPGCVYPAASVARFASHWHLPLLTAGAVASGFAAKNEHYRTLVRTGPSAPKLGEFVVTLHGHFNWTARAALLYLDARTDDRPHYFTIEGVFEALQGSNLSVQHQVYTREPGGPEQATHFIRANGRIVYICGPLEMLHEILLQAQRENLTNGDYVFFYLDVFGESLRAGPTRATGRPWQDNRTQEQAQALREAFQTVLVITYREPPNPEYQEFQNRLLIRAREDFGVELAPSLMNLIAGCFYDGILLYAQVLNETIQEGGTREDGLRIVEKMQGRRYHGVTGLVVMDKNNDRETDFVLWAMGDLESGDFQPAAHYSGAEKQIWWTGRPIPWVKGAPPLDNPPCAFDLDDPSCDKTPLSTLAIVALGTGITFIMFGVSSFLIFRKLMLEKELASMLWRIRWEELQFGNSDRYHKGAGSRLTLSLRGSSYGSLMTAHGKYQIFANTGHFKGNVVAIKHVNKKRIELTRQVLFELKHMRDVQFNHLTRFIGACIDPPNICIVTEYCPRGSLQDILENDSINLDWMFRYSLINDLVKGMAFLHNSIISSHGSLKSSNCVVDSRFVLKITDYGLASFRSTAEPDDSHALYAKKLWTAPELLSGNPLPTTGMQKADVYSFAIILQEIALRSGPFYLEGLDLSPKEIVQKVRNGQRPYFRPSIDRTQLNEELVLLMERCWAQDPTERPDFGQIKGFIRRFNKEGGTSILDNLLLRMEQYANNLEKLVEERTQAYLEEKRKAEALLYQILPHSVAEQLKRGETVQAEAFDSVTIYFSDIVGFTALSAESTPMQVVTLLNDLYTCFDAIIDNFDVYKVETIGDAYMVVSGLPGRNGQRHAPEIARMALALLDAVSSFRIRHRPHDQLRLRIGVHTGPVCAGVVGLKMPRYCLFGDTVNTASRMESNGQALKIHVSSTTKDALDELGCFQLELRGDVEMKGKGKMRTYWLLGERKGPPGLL
Protocol: To determine the effects of CNP on subjects with short stature resulting from NPR2 mutations, cellular models of NPR2 mutations were developed. Exemplary NPR2 mutations analyzed are set out in FIG. 5. Rat chondrosarcoma (RCS) cells having either a knockout of, or heterozygous loss of function mutations in, the NPR2 gene were made by RNP transfection into RCS cells using 125 ng NPR2 variants or wild-type NPR2 plasmid DNA transfected into RCS or HEK293 cells. Single cell clones were seeded and genotyped by Sanger sequencing. Cell models are able to reproduce published cGMP phenotypes of the different mutations.
The NPR2 clones were created by creating insertions and deletions in the first exon of NPR2 in RCS cells. The sequence of the first exon in NPR2 was confirmed by next-generation sequencing and is set out in FIG. 4. NPR2 mutant cells were tested for activity in response to CNP administration by a cGMP stimulation assay using a CatchPoint Cyclic-GMP Fluorescent Assay after treatment with 6 nM of Pro-Gly CNP37. Briefly, NIH3T3 cells (ATCC, CRL-1658) and NPR-transfected HEK293 cells were seeded at 60,000 cells/well in a 96-well plate (96-well black imaging plates, Grenier, #655090). RCS (rat chondrosarcoma) cells were seeded at 40,000 cells/well. Culture media was as follows: NIH3T3 culture media: DMEM high glucose, pyruvate (Thermo, 11995-073)+10% FBS+1× Pen Strep (abbrev P/S, Thermo, cat #15140122). NIH3T3 was the control system for the cGMP assay HEK293 culture media: EMEM+10% FBS+1×P/S+1×GMAX. RCS culture media: DMEM+10% FBS+1× Pen Strep. Serum free NIH3T3 media: DMEM+1×P/S for treatment of cells with IBMX (CAS 28822-58-4); Serum free NIH3T3 media with BSA: DMEM+1×P/S+0.5 mg/mL BSA (Thermo, A9418-100G) for treatment of cells with CNP.
Cells were incubated for 24 hours at 37° C., 5% CO2. For cells to be treated with CNP variants, plates were pre-treated with IBMX (Enzo life sciences, 89161-340, 1 g) 15 minutes prior to use. IBMX is a potent, non-specific inhibitor of phosphodiesterases. An 800 mM stock solution of IBMX is diluted in IBMX dilution media (serum-free media (DMEM+[…] mixed 1:1 with 1×PBS) to a 0.75 mM working stock.
For cell treatment, cells were removed from the incubator, growth media was removed from cells and cells treated with IBMX. 80 μL 0.75 mM IBMX was added to each well and cells returned to 37° C. incubator for 15 minutes. […]
The cGMP assay was carried out using a cGMP calibrator, rabbit anti-cGMP antibody and HRP-cGMP prepared as according to manufacturer's protocol. 40 μL of calibrator was added to wells of an anti-cGMP antibody coated plated, and 40 μL of lysate to be analyzed added to the appropriate wells. […] The plate was read for fluorescence intensity on a Spectramax M, or similar instrument, at excitation 530 nm and emission at 590 nm.

[6] = test system: mouse model of Cardiofaciocutaneous syndrome using a Braf mutation (p.Q241R); settings: in vivo; cited from earlier work
[7] = test system: mice deficient in Nf1 in type II collagen producing cells; settings: daily injections; cited from earlier work

**Q.** Which “binding to NPR—B” value [1] does the source give for “DLRVDTKSRAAWARLLQEHPNARKYKGANKKGLSKGCFGLKLDRIGSMSGLGC [CNP-53]” here?
**A.** Its value is “bind similarly”.

**Q.** With `Nc1nc2c(ncn2[C@@H]2O[C@@H]3COP(=O)(O)O[C@H]3[C@H]2O)c(=O)[nH]1` [cGMP, guanosine 3′,5′ cyclic monophosphate] as the compound, how does the EC50 [2] read?
**A.** The EC50 was 0.04 to 0.36 µM.

**Q.** Which solubility of counterion [3] does the source give for `O=C(O)c1cc2ccccc2c(Cc2c([O-])c(C(=O)O)cc3ccccc23)c1[O-].[Na+].[Na+]` [disodium pamoic acid] here?
**A.** The solubility of counterion was “soluble”.

**Q.** Which pKa [4] does the source give for `CCCCCCCC/C=C\CCCCCCCC(=O)O` [oleic acid] here?
**A.** The pKa was 4-5.

**Q.** And the solubility of counterion [3]?
**A.** Its solubility of counterion is “soluble”.

**Q.** Which solubility of counterion [3] does the source give for `CCCCC(CC)COC(=O)CC(C(=O)OCC(CC)CCCC)S(=O)(=O)[O-].[Na+]` (centres unmarked) [sodium docusate] here?
**A.** The solubility of counterion was “soluble”.

**Q.** Which cGMP readout ([5]; NPR2+/− rat chondrosarcoma cell model, exogenous peptide (FIG. 3)) does the source give for “PGQEHPNARKYKGANKKGLSKGCFGLKLDRIGSMSGLGC (not fully specified (N-terminus, C-terminus); cysteine pairing not given here) [Pro-Gly-CNP37, CNP variant]” here?
**A.** The cGMP readout was “rescues cGMP readout”.

**Q.** For GLSKGCFGLKLDRIGSMSGLGC [CNP-22], which “binding to NPR—B” value [1] is on record?
**A.** The value was “bind similarly”.

**Q.** With “CNP: C-type natriuretic peptide; in the cGMP assay cells were treated with Pro-Gly CNP37 (PGQEHPNARKYKGANKKGLSKGCFGLKLDRIGSMSGLGC; not fully specified (N-terminus, C-terminus); ends and bridges not checked)” as the compound, how does the “rescue of NPR2 signaling” value ([5]; cell model of NPR2 haploinsufficiency, exogenous CNP) read?
**A.** Its value is “dose-dependent rescue of NPR2 signaling”.

**Q.** And the “CNP dose able to achieve an intracellular cGMP concentration exceeding the EC50 range for PRKG2 activation” value ([5]; heterozygous NPR2 knockout cells)?
**A.** The value was over 0.000163 µM.

**Q.** What about the “CNP dose able to achieve the same cGMP concentration” value ([5]; wild-type cells) of the same compound?
**A.** The value was 0.040 nM.

**Q.** And the body length [6]?
**A.** The body length was “increases in body length”.

**Q.** And the ERK phosphorylation [7]?
**A.** The ERK phosphorylation was “decreased ERK phosphorylation”.

**Q.** And the short stature [7]?
**A.** The short stature was “corrected the short stature”.
